This passage reports IC50 and Ki results from BindingDB's records for doi:10.3109/14756366.2012.688042 (Ondokuz Mayis University, 2013).

The target of experiment [1] is T1, Glutathione reductase, mitochondrial (Homo sapiens, UniProt P00390).
T1 sequence (P00390 whole entry): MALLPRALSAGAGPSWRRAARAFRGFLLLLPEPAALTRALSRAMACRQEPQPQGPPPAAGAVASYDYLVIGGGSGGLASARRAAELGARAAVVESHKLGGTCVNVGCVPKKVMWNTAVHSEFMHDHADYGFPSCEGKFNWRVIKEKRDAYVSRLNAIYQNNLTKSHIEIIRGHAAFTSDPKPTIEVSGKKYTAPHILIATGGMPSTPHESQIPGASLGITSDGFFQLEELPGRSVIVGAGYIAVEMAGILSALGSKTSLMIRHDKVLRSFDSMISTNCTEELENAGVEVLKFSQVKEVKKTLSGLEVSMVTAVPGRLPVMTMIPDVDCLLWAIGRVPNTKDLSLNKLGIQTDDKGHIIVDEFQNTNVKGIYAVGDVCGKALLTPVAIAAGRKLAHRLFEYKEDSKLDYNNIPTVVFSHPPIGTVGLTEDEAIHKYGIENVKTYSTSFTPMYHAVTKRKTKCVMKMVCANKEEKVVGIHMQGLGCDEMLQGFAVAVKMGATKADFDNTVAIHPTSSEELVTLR
The experiment can be described thus: Glutathione Reductase Activity Assay. The following applies: pH 8. On the procedure:
Enzymatic activity was measured by Beutler's method with a Shimadzu Spectrophotometer UV-(1208), at 25°C. The assay system contained 100 mM Tris-HCl buffer pH 8.0, including 0.5 mM EDTA, 3.3 mM GSSG and 0.1 mM NADPH. One enzyme unit is defined as the oxidation of 1 μmol NADPH per min under the assay condition at 25°C.

The target of the next experiment is T2, Glutathione peroxidase 1 (Homo sapiens, UniProt P07203).
T2 sequence (P07203 whole entry): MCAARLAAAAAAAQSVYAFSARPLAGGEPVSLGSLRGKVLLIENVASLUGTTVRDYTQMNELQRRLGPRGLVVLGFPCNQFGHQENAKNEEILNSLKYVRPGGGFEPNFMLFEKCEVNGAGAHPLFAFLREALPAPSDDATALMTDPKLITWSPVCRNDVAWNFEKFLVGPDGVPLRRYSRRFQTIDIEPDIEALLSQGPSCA
Description: Glutathione Peroxidase Activity Assay. The following applies: pH 7. On the procedure:
Glutathione peroxidase was assayed in a l-ml system containing 0.1 M potassium phosphate buffer, pH 7.0, 0.2 mM NADPH, 1 i.u. glutathione reductase, 4 mM GSH,4 mM EDTA, 4 mM sodium azide. The reaction mixture was incubated at 37°C for 10 min after which 10 μl of 10 mM t-butyl hydroperoxide were added to start the reaction. No t-butyl hydroperoxide was added to the blank cuvette. The rate of reaction was measured at 37°C by following the decrease in the absorbance at 340 nm using a spectrophotometer.

The target in experiment [2] is T3, Microsomal glutathione S-transferase 1 (Homo sapiens, UniProt P10620).
T3 sequence (P10620 whole entry): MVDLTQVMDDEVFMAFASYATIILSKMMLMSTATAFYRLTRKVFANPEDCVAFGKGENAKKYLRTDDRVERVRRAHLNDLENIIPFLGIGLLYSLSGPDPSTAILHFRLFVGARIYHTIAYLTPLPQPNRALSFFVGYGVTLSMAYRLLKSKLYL
Description: Glutathione S-transferase Activity Assay. The following applies: pH 6.5. Here is the method:
Enzymatic activity was determined spectrophotometrically by measuring the conjugation of CDNB with GSH. The 1 ml assay mixture contained 0.5 mM CDNB, 1 mMGSH, and 100 mM potassium phosphate buffer, pH 6.5. The rate of increase in absorbance at 340 nm was measured for 5 mm at 37°C against a blank containing thereaction mixture without enzyme.

For `CO/N=C(\C(=O)N[C@@H]1C(=O)N2C(C(=O)O)=C(COC(N)=O)CS[C@H]12)c1ccco1` [640/359], the half-inhibitory concentration (IC50) in experiment [1] worked out at 18.8 µM; at Glutathione peroxidase 1 it was 44.3 µM; in experiment [2], 56.4 µM. Besides, the results for the Ki (in experiment [1]; on Glutathione peroxidase 1; in experiment [2]) were 10.4 µM, 32.7 µM and 32.4 µM, respectively.
With `CO/N=C(\C(=O)N[C@@H]1C(=O)N2C(C(=O)O)=CCS[C@H]12)c1csc(N)n1` [Ceftizoxime], the IC50 amounted to 39.7 µM in experiment [1], 186 µM against Glutathione peroxidase 1 and 278 µM in experiment [2]. The inhibition constant (Ki) in experiment [1] is 22.8 µM; at Glutathione peroxidase 1, 121 µM; in experiment [2] it was 165 µM.
For `CO/N=C(\C(=O)N[C@@H]1C(=O)N2C(C(=O)O)=C(CSc3nc(=O)c(=O)[nH]n3C)CS[C@H]12)c1csc(N)n1` [(6R,7R)-7-{2-(2-Amino-thiazol-4-yl)-2-[(Z)-methoxyimino]-acetylamino}-3-(2-methyl-5,6-dioxo-1,2,5,6-tetrahydro-[1,2,4]triazin-3-ylsulfanylmethyl)-8-oxo-5-thia-1-aza-bicyclo[4.2.0]oct-2-ene-2-carboxylic acid], the IC50 is 21.3 µM in experiment [1], 48.6 µM against Glutathione peroxidase 1 and 61.8 µM in experiment [2]. In addition, the Ki in experiment [1] is 17.3 µM; on Glutathione peroxidase 1 it was 34.1 µM; in experiment [2], 35.4 µM.
For the compound `CCN1CCN(C(=O)N[C@@H](C(=O)N[C@@H]2C(=O)N3C(C(=O)O)=C(CSc4nnnn4C)CS[C@H]23)c2ccc(O)cc2)C(=O)C1=O` [CEFOPERAZONE], the half-inhibitory concentration (IC50) in experiment [1] was 48.4 µM; at Glutathione peroxidase 1, 313 µM; in experiment [2], 484 µM. The Ki in experiment [1] was found to be 28.7 µM; at Glutathione peroxidase 1, 245 µM; in experiment [2], 267 µM.
